From US20240025884A1 (Dong-A ST Co., Ltd., priority 2022, published 2024)

These compounds were tested against GCN2 (Homo sapiens (Human), UniProt Q9P2K8) (assay: GCN2 Biochemical Assay (TR-FRET, GFP-eIF2S1 substrate phosphorylation)). Conditions: read-out: IC50 (GCN2 Inhibitory Activity).
Method in brief: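 In-house GCN2 (1.6 nM 2× stock) phosphorylates GFP-eIF2S1 (50 nM 2× stock) with ATP (0.2 mM 2× stock) and tRNA, pH 7.5, 70 min at room temperature; 10-point 3.16-fold compound series. TR-FRET detection with Tb-anti-phospho antibody, 2–3 h, Ex 340/Em 490/520 nm; artifact plate spiked with phospho-substrate.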

Sequence of GCN2 (Q9P2K8 whole entry): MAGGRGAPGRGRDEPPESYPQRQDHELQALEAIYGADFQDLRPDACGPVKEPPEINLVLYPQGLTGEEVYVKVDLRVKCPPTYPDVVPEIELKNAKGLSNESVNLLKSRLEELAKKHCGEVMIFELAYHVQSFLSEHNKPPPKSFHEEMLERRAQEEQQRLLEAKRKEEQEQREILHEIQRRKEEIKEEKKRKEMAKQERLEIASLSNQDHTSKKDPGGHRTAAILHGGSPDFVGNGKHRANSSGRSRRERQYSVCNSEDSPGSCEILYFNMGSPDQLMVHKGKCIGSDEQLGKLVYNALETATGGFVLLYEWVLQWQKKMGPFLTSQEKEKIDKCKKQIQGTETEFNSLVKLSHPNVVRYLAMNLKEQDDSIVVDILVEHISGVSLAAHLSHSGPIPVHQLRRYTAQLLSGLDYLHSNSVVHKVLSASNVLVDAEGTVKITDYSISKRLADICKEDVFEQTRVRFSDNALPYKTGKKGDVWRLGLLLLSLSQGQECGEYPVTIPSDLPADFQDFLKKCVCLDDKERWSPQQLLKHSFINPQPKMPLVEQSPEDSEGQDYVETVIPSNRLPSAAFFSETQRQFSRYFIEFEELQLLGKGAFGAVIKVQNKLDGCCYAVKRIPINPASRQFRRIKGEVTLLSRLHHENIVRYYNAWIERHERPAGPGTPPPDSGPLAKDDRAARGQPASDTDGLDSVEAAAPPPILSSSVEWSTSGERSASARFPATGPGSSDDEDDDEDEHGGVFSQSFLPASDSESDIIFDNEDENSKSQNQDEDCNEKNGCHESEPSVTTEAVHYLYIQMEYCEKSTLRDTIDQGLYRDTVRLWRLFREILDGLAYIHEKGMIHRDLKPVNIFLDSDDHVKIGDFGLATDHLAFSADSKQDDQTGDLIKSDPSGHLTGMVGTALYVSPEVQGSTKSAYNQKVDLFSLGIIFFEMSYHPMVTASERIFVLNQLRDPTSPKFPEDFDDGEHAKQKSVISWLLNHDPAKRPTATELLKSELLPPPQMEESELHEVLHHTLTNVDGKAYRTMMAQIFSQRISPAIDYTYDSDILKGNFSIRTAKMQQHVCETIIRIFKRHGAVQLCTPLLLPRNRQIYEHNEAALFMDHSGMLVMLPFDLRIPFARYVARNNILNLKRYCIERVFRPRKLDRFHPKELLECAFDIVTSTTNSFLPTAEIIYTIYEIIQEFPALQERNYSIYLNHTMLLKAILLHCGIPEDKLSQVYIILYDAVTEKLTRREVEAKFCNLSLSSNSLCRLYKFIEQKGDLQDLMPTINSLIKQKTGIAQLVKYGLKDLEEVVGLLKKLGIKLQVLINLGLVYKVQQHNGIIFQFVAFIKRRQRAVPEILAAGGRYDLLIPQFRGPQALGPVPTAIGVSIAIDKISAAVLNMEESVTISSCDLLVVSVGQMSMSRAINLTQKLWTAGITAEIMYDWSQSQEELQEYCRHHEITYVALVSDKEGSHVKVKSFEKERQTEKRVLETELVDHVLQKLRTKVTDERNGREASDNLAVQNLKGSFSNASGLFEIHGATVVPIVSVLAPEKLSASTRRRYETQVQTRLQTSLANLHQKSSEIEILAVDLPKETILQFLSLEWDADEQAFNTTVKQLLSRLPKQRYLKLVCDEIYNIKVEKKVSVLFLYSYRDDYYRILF

| IC50 | Compound |
| --- | --- |
| 10 to 100 nM | Cc1cnc(Nc2cc(C)n(C)n2)nc1-c1c[nH]c2c(NC(=O)CN3CC[C@H](Oc4ccnc(Cl)c4)C3)cccc12 [Example 91] |
| < 10 nM | Cc1cnc(Nc2cc(C)n(C)n2)nc1-c1c[nH]c2c(NC(=O)CN3CC[C@H](Oc4cncc(N)n4)C3)cccc12 [Example 92] |
| 10 to 100 nM | Cc1cnc(Nc2cc(C)n(C)n2)nc1-c1c[nH]c2c(NC(=O)CN3CC[C@H](Oc4ncc(F)cn4)C3)cccc12 [Example 93] |
| 10 to 100 nM | Cc1cnc(Nc2cc(C)n(C)n2)nc1-c1c[nH]c2c(NC(=O)CN3CC[C@H](Oc4ncnc(Cl)c4C)C3)cccc12 [Example 94, (S)-2-(3-((6-chloro-5-methylpyrimidin-4-yl)oxy)pyrrolidin-1-yl)-N-(3-(2-((1,5-dimethyl-1H-pyrazol-3-yl)amino)-5-methylpyrimidin-4-yl)-1H-indol-7-yl)acetamide] |
| < 10 nM | Cc1cc(O[C@H]2CCN(CC(=O)Nc3cccc4c(-c5nc(Nc6cc(C)n(C)n6)ncc5C)c[nH]c34)C2)nc(N)n1 [Example 95, (S)-2-(3-((2-amino-6-methylpyrimidin-4-yl)oxy)pyrrolidin-1-yl)-N-(3-(2-((1,5-dimethyl-1H-pyrazol-3-yl)amino)-5-methylpyrimidin-4-yl)-1H-indol-7-yl)acetamide] |
| 10 to 100 nM | Cc1cnc(Nc2cc(C)n(C)n2)nc1-c1c[nH]c2c(NC(=O)CN3CC[C@H](Oc4nc(Cl)ncc4N)C3)cccc12 [Example 96, (S)-2-(3-((5-amino-2-chloropyrimidin-4-yl)oxy)pyrrolidin-1-yl)-N-(3-(2-((1,5-dimethyl-1H-pyrazol-3-yl)amino)-5-methylpyrimidin-4-yl)-1H-indol-7-yl)acetamide] |
| 10 to 100 nM | Cc1ncc(Br)c(O[C@H]2CCN(CC(=O)Nc3cccc4c(-c5nc(Nc6cc(C)n(C)n6)ncc5C)c[nH]c34)C2)n1 [Example 97, (S)-2-(3-((5-bromo-2-methylpyrimidin-4-yl)oxy)pyrrolidin-1-yl)-N-(3-(2-((1,5-dimethyl-1H-pyrazol-3-yl)amino)-5-methylpyrimidin-4-yl)-1H-indol-7-yl)acetamide] |
| 100 to 1000 nM | Cc1cnc(Nc2cc(C)n(C)n2)nc1-c1c[nH]c2c(NC(=O)CN3CC[C@H](Oc4cc(-c5cc(Cl)ccc5F)nc(N)n4)C3)cccc12 [Example 98, (S)-2-(3-((2-amino-6-(5-chloro-2-fluorophenyl)pyrimidin-4-yl)oxy)pyrrolidin-1-yl)-N-(3-(2-((1,5-dimethyl-1H-pyrazol-3-yl)amino)-5-methylpyrimidin-4-yl)-1H-indol-7-yl)acetamide] |
| 10 to 100 nM | Cc1cnc(Nc2cc(C)n(C)n2)nc1-c1c[nH]c2c(NC(=O)CN3CC[C@H](Oc4cc(C(F)(F)F)nc(N)n4)C3)cccc12 [Example 99, (S)-2-(3-((2-amino-6-(trifluoromethyl)pyrimidin-4-yl)oxy)pyrrolidin-1-yl)-N-(3-(2-((1,5-dimethyl-1H-pyrazol-3-yl)amino)-5-methylpyrimidin-4-yl)-1H-indol-7-yl)acetamide] |
| 100 to 1000 nM | Cc1cnc(Nc2cc(C)n(C)n2)nc1-c1c[nH]c2c(NC(=O)CN3CC[C@H](Oc4ccc(-c5ccccc5)cc4)C3)cccc12 [Example 100, (S)-2-(3-([1,1′-biphenyl]-4-yloxy)pyrrolidin-1-yl)-N-(3-(2-((1,5-dimethyl-1H-pyrazol-3-yl)amino)-5-methylpyrimidin-4-yl)-1H-indol-7-yl)acetamide] |
| > 1000 nM | Cc1cnc(Nc2cc(C)n(C)n2)nc1-c1c[nH]c2c(NC(=O)CN3CC[C@H](Oc4ccc(C(C)(C)c5ccccc5)cc4)C3)cccc12 [Example 101, (S)-N-(3-(2-((1,5-dimethyl-1H-pyrazol-3-yl)amino)-5-methylpyrimidin-4-yl)-1H-indol-7-yl)-2-(3-(4-(2-phenylpropan-2-yl)phenoxy)pyrrolidin-1-yl)acetamide] |
